Experimental data published in US20080242724A1, “Ibopamine Maleate, Method for Preparing it and Pharmaceutical Compositions Containing It” (AZIENDE CHIM. RIUN. ANG. FRANC. A.C.R.A.F. S.P.A., priority 2004, published 2008).
Structures can show the parent of a compound that is named as a salt.

System: male rabbits (New Zealand White)
Assay: Ocular tolerability (Draize) after repeated instillation
Assay type: in vivo, rabbit
Settings: for Conjunctiva Lachrymation / Conjunctiva Reddening / Conjunctiva Swelling / Cornea Area of the cornea affected by opacity / Cornea Opacity / Iris: Draize score; for Conjunctiva Lachrymation / Conjunctiva Reddening / Conjunctiva Swelling / Cornea Area of the cornea affected by opacity / Cornea Opacity / Iris / Total Score: rabbit eye, 0.1 ml aqueous solution (corresponding to 1.79% by weight of ibopamine, pH 7.0) three times a day for fifteen days; for local tolerability: compared with the hydrochloride, statement in words; for Total Score: sum of Draize scores
Description: Two aqueous solutions were used.
The first contained 2% by weight of ibopamine hydrochloride (corresponding to 1.79% by weight of ibopamine) buffered to pH 7.0.
The second contained 2.46% by weight of ibopamine maleate (corresponding to 1.79% by weight of ibopamine) buffered to pH 7.0.
12 male rabbits (New Zealand White) with an average weight of 2 kg and an average age of ten months were used, divided into two groups of six rabbits each. The first group was treated with 0.1 ml of the first test solution three times a day for fifteen days. The second group was treated with 0.1 ml of the second test solution three times a day for fifteen days.
The tolerability was evaluated according to J. Draize et al., Pharmacol. Exp. Ther., 83, 377-390 (1944).

| Compound | Conjunctiva Lachrymation | Conjunctiva Reddening | Conjunctiva Swelling | Cornea Area of the cornea affected by opacity | Cornea Opacity | Iris | local tolerability (listed as ibopamine maleate) | local tolerability (listed as maleate) | Total Score |
| --- | --- | --- | --- | --- | --- | --- | --- | --- | --- |
| ibopamine maleate (1:1) | 1 | 1 | 0 | 1 | 0 | 0 | better local tolerability | better local tolerability than the hydrochloride | 3 |
| CNCCc1ccc(OC(=O)C(C)C)c(OC(=O)C(C)C)c1 [Ibopamine hydrochloride, ibopamine hydrochloride, reference compound] | 2 | 1 | 1 | 2 | 1 | 1 | – | – | 8 |
